Results taken from US6806230B1, “Pyrimidine derivatives and herbicides containing them” (Kumiai Chemical Industry Co., Ltd., priority 1999, dated 2004).

What follows are compounds tested on barnyard grass (Ec) (assay: Test Example 2: herbicidal effects by upland soil treatment). Settings: dose 100 g active ingredient per 10 ares, examined on the 21st day after treatment.
Type: in vivo
Set-up: scale not given here
Procedure: In a 80 cm^2 plastic pot, upland soil was filled, and seeds of barnyard grass (Ec) and green foxtail (Se) were sown and covered with soil. A wettable powder prepared in accordance with Formulation Example 1 was diluted with water and uniformly applied to the soil surface by means of a small size spray at a rate of 100 l per 10 ares, so that the dose of the active ingredient would be 100 g per 10 ares. Thereafter, cultivation was carried out in a green house, and on the 21st day after the treatment, the herbicidal effects were examined in accordance with the standards as identified in Table 44.

SMILES | Ec (herbicidal effects, index)
Cc1ccc(CC(=O)N(C)C(c2ccsc2)c2cncnc2C(F)(F)F)cc1 (racemic) [1-443] | 5
C#CCN(C(=O)Cc1ccc(Cl)s1)C(c1cncnc1CC)C(C)C (racemic) [2-73] | 5
CCC(c1cncnc1C(C)(C)C)N(C)C(=O)Cc1ccc(C)cc1 (racemic) [1-573] | 5
CC(C)C(c1cncnc1C(F)(F)F)N(C)C(=O)Cc1ccsc1 (racemic) [2-2] | 5
CCc1ncncc1C(N(C)C(=O)Cc1ccc(C)cc1)C(C)(C)C (racemic) [1-567] | 5
CN(C(=O)Cc1ccc(C(F)(F)F)cc1)C(c1ccccc1)c1cncnc1C(F)(F)F (racemic) [1-306] | 5
CCN(C(=O)N(C)C(c1cncnc1C(F)(F)F)C(C)C)c1ccccc1 (racemic) [1-425] | 5
CCC(c1cncnc1C(C)C)N(C)C(=O)Cc1ccc(C)cc1 (racemic) [1-439] | 5
COC(C)(OC)C(c1cncnc1C(C)C)N(C)C(=O)Cc1ccc(Cl)cc1 (racemic) [1-511] | 4
Cc1ccc(CC(=O)N(C)C(c2ccccc2)c2cncnc2C(F)(F)F)s1 (racemic) [2-32] | 5
CON=Cc1ncncc1C(C(C)C)N(C)C(=O)Cc1ccc(Cl)cc1 (racemic) [1-498] | 5
COc1ccc(C(c2cncnc2C(F)(F)F)N(C)C(=O)Cc2ccc(F)cc2)cc1 (racemic) [1-485] | 5
C=CCN(C(=O)Cc1ccc(Cl)cc1)C(c1cncnc1C(F)(F)F)C(C)C (racemic) [1-520] | 5

Each compound was assayed on barnyard grass (Eo) (assay: Test Example 1: herbicidal effects by flooded paddy field treatment). Settings: dose 100 g active ingredient per 10 ares, examined on the 21st day after treatment, standards of Table 44.
Type: in vivo
Set-up: herbicidal effects, Eo (barnyard grass):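 0-5 growth inhibition grade; 5 = over 90%; 4 = 70-90%; 3 = 50-70%; 2 = 30-50%; 1 = 10-30%; 0 = under 10%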
Procedure, shortened: (§1)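 Herbicidal effect scored 21 days post-treatment after greenhouse cultivation. Treatment was applied dropwise to the water surface, one day after sowing, as a diluted wettable powder (100 g a.i./10 ares). Pots held puddled paddy soil under 3 cm water.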

SMILES | herbicidal effects, Eo (barnyard grass)
Cc1ccc(CC(=O)N(C)C(c2ccsc2)c2cncnc2C(F)(F)F)cc1 (racemic) [1-443] | 5
C#CCN(C(=O)Cc1ccc(Cl)s1)C(c1cncnc1CC)C(C)C (racemic) [2-73] | 5
CCC(c1cncnc1C(C)(C)C)N(C)C(=O)Cc1ccc(C)cc1 (racemic) [1-573] | 5
CC(C)C(c1cncnc1C(F)(F)F)N(C)C(=O)Cc1ccsc1 (racemic) [2-2] | 5
CCc1ncncc1C(N(C)C(=O)Cc1ccc(C)cc1)C(C)(C)C (racemic) [1-567] | 5
CN(C(=O)Cc1ccc(C(F)(F)F)cc1)C(c1ccccc1)c1cncnc1C(F)(F)F (racemic) [1-306] | 5
CCN(C(=O)N(C)C(c1cncnc1C(F)(F)F)C(C)C)c1ccccc1 (racemic) [1-425] | 5
CCC(c1cncnc1C(C)C)N(C)C(=O)Cc1ccc(C)cc1 (racemic) [1-439] | 5
COC(C)(OC)C(c1cncnc1C(C)C)N(C)C(=O)Cc1ccc(Cl)cc1 (racemic) [1-511] | 5
Cc1ccc(CC(=O)N(C)C(c2ccccc2)c2cncnc2C(F)(F)F)s1 (racemic) [2-32] | 5
CON=Cc1ncncc1C(C(C)C)N(C)C(=O)Cc1ccc(Cl)cc1 (racemic) [1-498] | 5
COc1ccc(C(c2cncnc2C(F)(F)F)N(C)C(=O)Cc2ccc(F)cc2)cc1 (racemic) [1-485] | 5
C=CCN(C(=O)Cc1ccc(Cl)cc1)C(c1cncnc1C(F)(F)F)C(C)C (racemic) [1-520] | 5

What follows are compounds tested on barnyard grass (Eo) (assay: Test Example 4: selectivity for a crop plant by flooded paddy field treatment). Settings: barnyard grass, dose 25 gai/10a, 21st day after treatment, index per Table 44.
Type: in vivo
Set-up: scale not given here
Procedure: (§2) In a 100 cm^2 plastic pot, a paddy field soil was filled and paddled. Then, seeds of barnyard grass (Eo) and monochoria (Mo) were sown, and rice (Or) of second leaf stage was transplanted, and water was introduced to a depth of 3 cm. Next day, a wettable powder prepared in accordance with Formulation Example 1 was diluted with water and dropwise applied to the water surface. The dose was 25 g of the active ingredient per 10 ares. Thereafter, cultivation was carried out in a green house, and on the 21st day after the treatment, the herbicidal effects were examined in accordance with the standards of Table 44.

SMILES | Eo (herbicidal effect index)
Cc1ccc(CC(=O)N(C)C(c2ccsc2)c2cncnc2C(F)(F)F)cc1 (racemic) [1-443] | 5
C#CCN(C(=O)Cc1ccc(Cl)s1)C(c1cncnc1CC)C(C)C (racemic) [2-73] | 5
CCC(c1cncnc1C(C)(C)C)N(C)C(=O)Cc1ccc(C)cc1 (racemic) [1-573] | 5
CC(C)C(c1cncnc1C(F)(F)F)N(C)C(=O)Cc1ccsc1 (racemic) [2-2] | 5
CCc1ncncc1C(N(C)C(=O)Cc1ccc(C)cc1)C(C)(C)C (racemic) [1-567] | 5
CN(C(=O)Cc1ccc(C(F)(F)F)cc1)C(c1ccccc1)c1cncnc1C(F)(F)F (racemic) [1-306] | 5
CCN(C(=O)N(C)C(c1cncnc1C(F)(F)F)C(C)C)c1ccccc1 (racemic) [1-425] | 5
CCC(c1cncnc1C(C)C)N(C)C(=O)Cc1ccc(C)cc1 (racemic) [1-439] | 5
COC(C)(OC)C(c1cncnc1C(C)C)N(C)C(=O)Cc1ccc(Cl)cc1 (racemic) [1-511] | 5
Cc1ccc(CC(=O)N(C)C(c2ccccc2)c2cncnc2C(F)(F)F)s1 (racemic) [2-32] | 5
CON=Cc1ncncc1C(C(C)C)N(C)C(=O)Cc1ccc(Cl)cc1 (racemic) [1-498] | 5
COc1ccc(C(c2cncnc2C(F)(F)F)N(C)C(=O)Cc2ccc(F)cc2)cc1 (racemic) [1-485] | 5
C=CCN(C(=O)Cc1ccc(Cl)cc1)C(c1cncnc1C(F)(F)F)C(C)C (racemic) [1-520] | 5

The compounds below were run on monochoria (Mo) in the same assay as above. Settings: monochoria, dose 25 gai/10a, 21st day after treatment, index per Table 44.
Type: in vivo
Set-up: scale not given here
Procedure: as §2

SMILES | Mo (herbicidal effect index)
Cc1ccc(CC(=O)N(C)C(c2ccsc2)c2cncnc2C(F)(F)F)cc1 (racemic) [1-443] | 5
C#CCN(C(=O)Cc1ccc(Cl)s1)C(c1cncnc1CC)C(C)C (racemic) [2-73] | 5
CCC(c1cncnc1C(C)(C)C)N(C)C(=O)Cc1ccc(C)cc1 (racemic) [1-573] | 5
CC(C)C(c1cncnc1C(F)(F)F)N(C)C(=O)Cc1ccsc1 (racemic) [2-2] | 5
CCc1ncncc1C(N(C)C(=O)Cc1ccc(C)cc1)C(C)(C)C (racemic) [1-567] | 5
CN(C(=O)Cc1ccc(C(F)(F)F)cc1)C(c1ccccc1)c1cncnc1C(F)(F)F (racemic) [1-306] | 5
CCN(C(=O)N(C)C(c1cncnc1C(F)(F)F)C(C)C)c1ccccc1 (racemic) [1-425] | 5
CCC(c1cncnc1C(C)C)N(C)C(=O)Cc1ccc(C)cc1 (racemic) [1-439] | 5
COC(C)(OC)C(c1cncnc1C(C)C)N(C)C(=O)Cc1ccc(Cl)cc1 (racemic) [1-511] | 5
Cc1ccc(CC(=O)N(C)C(c2ccccc2)c2cncnc2C(F)(F)F)s1 (racemic) [2-32] | 5
CON=Cc1ncncc1C(C(C)C)N(C)C(=O)Cc1ccc(Cl)cc1 (racemic) [1-498] | 5
COc1ccc(C(c2cncnc2C(F)(F)F)N(C)C(=O)Cc2ccc(F)cc2)cc1 (racemic) [1-485] | 5
C=CCN(C(=O)Cc1ccc(Cl)cc1)C(c1cncnc1C(F)(F)F)C(C)C (racemic) [1-520] | 5

What follows are compounds tested on rice (Or) in the same assay as above. Settings: rice transplanted at second leaf stage, dose 25 gai/10a, 21st day after treatment, index per Table 44.
Type: in vivo
Set-up: scale not given here
Procedure: as §2

SMILES | Or (herbicidal effect index on crop)
Cc1ccc(CC(=O)N(C)C(c2ccsc2)c2cncnc2C(F)(F)F)cc1 (racemic) [1-443] | 1
C#CCN(C(=O)Cc1ccc(Cl)s1)C(c1cncnc1CC)C(C)C (racemic) [2-73] | 1
CCC(c1cncnc1C(C)(C)C)N(C)C(=O)Cc1ccc(C)cc1 (racemic) [1-573] | 1
CC(C)C(c1cncnc1C(F)(F)F)N(C)C(=O)Cc1ccsc1 (racemic) [2-2] | 1
CCc1ncncc1C(N(C)C(=O)Cc1ccc(C)cc1)C(C)(C)C (racemic) [1-567] | 1
CN(C(=O)Cc1ccc(C(F)(F)F)cc1)C(c1ccccc1)c1cncnc1C(F)(F)F (racemic) [1-306] | 1
CCN(C(=O)N(C)C(c1cncnc1C(F)(F)F)C(C)C)c1ccccc1 (racemic) [1-425] | 1
CCC(c1cncnc1C(C)C)N(C)C(=O)Cc1ccc(C)cc1 (racemic) [1-439] | 1
COC(C)(OC)C(c1cncnc1C(C)C)N(C)C(=O)Cc1ccc(Cl)cc1 (racemic) [1-511] | 0
Cc1ccc(CC(=O)N(C)C(c2ccccc2)c2cncnc2C(F)(F)F)s1 (racemic) [2-32] | 1
CON=Cc1ncncc1C(C(C)C)N(C)C(=O)Cc1ccc(Cl)cc1 (racemic) [1-498] | 0
COc1ccc(C(c2cncnc2C(F)(F)F)N(C)C(=O)Cc2ccc(F)cc2)cc1 (racemic) [1-485] | 1
C=CCN(C(=O)Cc1ccc(Cl)cc1)C(c1cncnc1C(F)(F)F)C(C)C (racemic) [1-520] | 1

The compounds below were run on monochoria (Mo) (assay: Test Example 1: herbicidal effects by flooded paddy field treatment). Settings: dose 100 g active ingredient per 10 ares, examined on the 21st day after treatment, standards of Table 44.
Type: in vivo
Set-up: herbicidal effects, Mo (monochoria):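 0-5 growth inhibition grade; 5 = over 90%; 4 = 70-90%; 3 = 50-70%; 2 = 30-50%; 1 = 10-30%; 0 = under 10%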
Procedure, shortened: as §1

SMILES | herbicidal effects, Mo (monochoria)
Cc1ccc(CC(=O)N(C)C(c2ccsc2)c2cncnc2C(F)(F)F)cc1 (racemic) [1-443] | 5
C#CCN(C(=O)Cc1ccc(Cl)s1)C(c1cncnc1CC)C(C)C (racemic) [2-73] | 5
CCC(c1cncnc1C(C)(C)C)N(C)C(=O)Cc1ccc(C)cc1 (racemic) [1-573] | 5
CC(C)C(c1cncnc1C(F)(F)F)N(C)C(=O)Cc1ccsc1 (racemic) [2-2] | 5
CCc1ncncc1C(N(C)C(=O)Cc1ccc(C)cc1)C(C)(C)C (racemic) [1-567] | 5
CN(C(=O)Cc1ccc(C(F)(F)F)cc1)C(c1ccccc1)c1cncnc1C(F)(F)F (racemic) [1-306] | 5
CCN(C(=O)N(C)C(c1cncnc1C(F)(F)F)C(C)C)c1ccccc1 (racemic) [1-425] | 5
CCC(c1cncnc1C(C)C)N(C)C(=O)Cc1ccc(C)cc1 (racemic) [1-439] | 5
COC(C)(OC)C(c1cncnc1C(C)C)N(C)C(=O)Cc1ccc(Cl)cc1 (racemic) [1-511] | 5
Cc1ccc(CC(=O)N(C)C(c2ccccc2)c2cncnc2C(F)(F)F)s1 (racemic) [2-32] | 5
CON=Cc1ncncc1C(C(C)C)N(C)C(=O)Cc1ccc(Cl)cc1 (racemic) [1-498] | 5
COc1ccc(C(c2cncnc2C(F)(F)F)N(C)C(=O)Cc2ccc(F)cc2)cc1 (racemic) [1-485] | 5
C=CCN(C(=O)Cc1ccc(Cl)cc1)C(c1cncnc1C(F)(F)F)C(C)C (racemic) [1-520] | 5
